pIC50: −log10 of the molar value. Activity calls are given as the source filed them. The rule behind the calls is not given here.
Experiments:
Assay in all cases: CXCR6 receptor antagonists, dose response, cell-based, beta-arrestin, DiscoveRx, APJ panel, uHTS hits (AID 624129)
[1] = biological target: Beta-galactosidase (Escherichia coli) (UniProt Q8VNN2); conditions: CXCR6 beta-arrestin (DiscoveRx) antagonist cell assay, b-galactosidase
[2] = biological target: C-X-C chemokine receptor type 6 (Homo sapiens) (UniProt O00574); conditions: CXCR6 beta-arrestin (DiscoveRx) antagonist cell assay
[3] = biological target: Apelin receptor (Homo sapiens) (UniProt P35414); conditions: CXCR6 beta-arrestin (DiscoveRx) antagonist cell assay, APJ
[4] = biological target: C-C chemokine receptor type 6 (Homo sapiens) (UniProt P51684); conditions: CXCR6 beta-arrestin (DiscoveRx) antagonist cell assay
[5] = dose range 1, mean IC50 across replicates
[6] = CXCR6, dose range 1, mean IC50 across replicates
[7] = CXCR6, run 1, dose range 2, at 80 µM (top of the series)
[8] = CCR6, dose range 1, mean IC50 across replicates

Chain of C-X-C chemokine receptor type 6 (Homo sapiens) (O00574 whole entry, looked up): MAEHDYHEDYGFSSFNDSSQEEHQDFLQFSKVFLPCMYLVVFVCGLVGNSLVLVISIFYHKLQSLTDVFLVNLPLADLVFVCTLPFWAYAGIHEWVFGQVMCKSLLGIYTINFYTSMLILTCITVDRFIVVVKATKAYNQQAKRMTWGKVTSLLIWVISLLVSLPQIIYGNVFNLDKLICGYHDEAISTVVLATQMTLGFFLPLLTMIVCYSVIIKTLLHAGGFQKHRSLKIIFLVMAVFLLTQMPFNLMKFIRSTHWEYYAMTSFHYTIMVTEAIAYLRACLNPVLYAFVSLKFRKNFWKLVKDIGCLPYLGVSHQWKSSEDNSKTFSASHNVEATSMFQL
Chain of Beta-galactosidase (Escherichia coli) (Q8VNN2 whole entry, looked up): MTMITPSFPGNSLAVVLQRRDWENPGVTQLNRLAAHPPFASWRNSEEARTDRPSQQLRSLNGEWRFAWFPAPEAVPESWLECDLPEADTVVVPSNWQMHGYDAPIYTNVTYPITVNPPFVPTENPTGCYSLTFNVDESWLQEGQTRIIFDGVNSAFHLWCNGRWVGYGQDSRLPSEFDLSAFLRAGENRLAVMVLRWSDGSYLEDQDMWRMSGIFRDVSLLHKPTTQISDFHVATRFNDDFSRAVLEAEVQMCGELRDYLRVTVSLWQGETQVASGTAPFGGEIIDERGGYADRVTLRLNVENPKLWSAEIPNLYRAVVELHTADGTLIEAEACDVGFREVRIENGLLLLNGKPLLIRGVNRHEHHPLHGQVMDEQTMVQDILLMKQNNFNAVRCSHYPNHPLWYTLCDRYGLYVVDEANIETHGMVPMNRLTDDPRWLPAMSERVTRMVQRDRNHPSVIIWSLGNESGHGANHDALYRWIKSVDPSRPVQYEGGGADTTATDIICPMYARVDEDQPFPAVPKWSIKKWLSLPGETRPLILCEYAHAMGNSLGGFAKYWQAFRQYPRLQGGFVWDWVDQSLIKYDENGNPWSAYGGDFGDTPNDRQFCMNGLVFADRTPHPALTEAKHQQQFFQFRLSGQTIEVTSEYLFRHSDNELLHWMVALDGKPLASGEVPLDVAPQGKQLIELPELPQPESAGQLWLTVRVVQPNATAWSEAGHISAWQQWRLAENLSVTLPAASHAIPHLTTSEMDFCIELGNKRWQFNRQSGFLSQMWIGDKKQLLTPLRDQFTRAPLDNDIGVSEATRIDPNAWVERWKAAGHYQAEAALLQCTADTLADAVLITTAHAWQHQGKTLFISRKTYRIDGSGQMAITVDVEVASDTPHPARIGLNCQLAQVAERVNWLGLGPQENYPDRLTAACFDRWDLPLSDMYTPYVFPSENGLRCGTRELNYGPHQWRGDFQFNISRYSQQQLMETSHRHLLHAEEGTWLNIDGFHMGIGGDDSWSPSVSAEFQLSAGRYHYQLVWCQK

IC50 ([1]; dose range 1) | pIC50 [1, 5] | pIC50 ([2]; CXCR6, dose range 1) | pIC50 [2, 6] | inhibition [2, 7] [%] | pIC50 ([2]; CXCR6, run 2, dose range 1) | pIC50 ([3]; dose range 1) | pIC50 [3, 5] | pIC50 ([3]; run 2, dose range 1) | pIC50 ([3]; run 3, dose range 1) | pIC50 ([4]; CCR6, dose range 1) | pIC50 [4, 8] | pIC50 ([4]; CCR6, run 2, dose range 1) | pIC50 ([2]; CXCR6, run 1, dose range 2) | pIC50 ([2]; CXCR6, run 2, dose range 2) | IC50 ([3]; dose range 1) | IC50 ([4]; CCR6, dose range 1) | IC50 ([2]; CXCR6, dose range 1) | inhibition ([2]; CXCR6, run 1, dose range 2, at 40 µM (top of the series)) [%] | pIC50 ([1]; dose range 1) | Compound
> 80 µM (inactive) | < 4.10 | 5.30 | 5.27 | 53 | 5.23 | 5.43 | 5.43 | < 4.10 | 5.44 | 5.44 | 5.63 | 5.97 | – | – | – | – | – | – | – | CN(C)c1nc(=NCc2cccs2)ss1
> 80 µM (inactive) | < 4.10 | – | 5.20 | – | < 4.10 | – | < 4.10 | < 4.10 | < 4.10 | – | 4.38 | 4.29 | 5.24 | 5.15 | > 80 µM (inactive) | inactive | – | – | – | Cc1c(CCCl)c(Cl)n2c(nc3ccccc32)c1C#N
> 80 µM (inactive) | < 4.10 | – | 4.82 | – | 4.64 | 5.01 | 4.51 | 4.86 | 4.16 | 4.91 | 4.92 | 4.92 | 5.04 | 4.97 | – | – | inactive | – | – | COc1ccccc1C(=O)NNC(=S)NC(=O)c1cccs1
> 80 µM (inactive) | < 4.10 | 4.97 | 4.96 | – | 4.94 | 4.79 | 4.80 | 4.82 | 4.78 | 4.94 | 4.96 | 4.99 | 4.98 | 4.97 | – | – | – | – | – | CCN(c1ccccc1)S(=O)(=O)c1ccc(NC(=O)c2nc(S(C)(=O)=O)ncc2Cl)cc1
> 80 µM (inactive) | < 4.10 | – | 4.85 | 126 | 4.92 | 4.70 | 4.66 | 4.68 | 4.61 | 4.92 | 4.91 | 4.89 | – | – | – | – | inactive | – | – | COc1cc2c(cc1OC)C1(CCCC1)CNC2c1cccc([N+](=O)[O-])c1 (stereo unspecified)
> 80 µM (inactive) | < 4.10 | 5.17 | 5.26 | – | 5.21 | 5.16 | 5.23 | 5.25 | 5.28 | 5.26 | 5.18 | 5.11 | 5.37 | 5.31 | – | – | – | – | – | CC(Oc1ccc(Br)cc1)C(=O)Nc1nc(-c2ccccn2)cs1 (stereo unspecified)
> 80 µM (inactive) | < 4.10 | 5.27 | 5.39 | – | 5.26 | 5.55 | 5.48 | 5.44 | 5.47 | 5.47 | 5.40 | 5.35 | 5.57 | 5.56 | – | – | – | – | – | CC(=O)/C(=N\Nc1ccc(Cl)cc1Cl)Sc1cccc2cccnc12
> 80 µM (inactive) | < 4.10 | – | < 4.10 | -9.6 | < 4.10 | – | < 4.10 | < 4.10 | < 4.10 | – | < 4.10 | < 4.10 | – | – | – | – | > 80 µM (inactive) | – | – | Cc1cccc(C)c1NC(=O)c1nc(S(=O)(=O)Cc2ccccc2)ncc1Cl
inactive | 4.19 | – | 4.84 | 93.2 | 4.88 | 4.80 | 4.54 | 4.47 | 4.43 | – | 4.43 | 4.43 | – | – | – | – | inactive | – | – | O=[N+]([O-])c1cc(Cc2ccccc2)cc(C=Nc2ccc(N3CCOCC3)cc2)c1O
> 80 µM (inactive) | < 4.10 | 5.13 | 5.16 | 28.7 | 5.18 | 4.64 | 4.83 | 4.91 | 5.04 | – | 5.04 | 5.04 | – | – | – | – | – | – | – | Cc1ccc(-c2oc3ccccc3c(=O)c2O)cc1
> 80 µM (inactive) | < 4.10 | 5.24 | 5.21 | – | 5.23 | 5.01 | 5.08 | 5.12 | 5.12 | 5.29 | 5.26 | 5.24 | 5.20 | 5.17 | – | – | – | – | – | C=C1C(=O)C23CCC4C(C)(C(=O)OC)CCCC4(C)C2CCC1(O)C3 (stereo unspecified)
> 80 µM (inactive) | < 4.10 | – | 4.90 | 114 | 4.98 | 4.66 | 4.71 | 4.74 | 4.72 | 4.98 | 4.95 | 4.91 | – | – | – | – | inactive | – | – | COc1ccc(OC)c2sc(N(CCCN(C)C)C(=O)CCS(=O)(=O)c3ccccc3)nc12
> 80 µM (inactive) | < 4.10 | – | 4.68 | 100 | 4.72 | 4.66 | 4.61 | 4.56 | < 4.10 | 4.68 | 4.69 | 4.69 | – | – | – | – | inactive | – | – | O=C(CN1CCN(S(=O)(=O)c2ccc(Br)cc2)CC1)Nc1ccc2c(c1)OCO2
inactive | 4.23 | – | 4.63 | 62 | 4.66 | – | 4.58 | 4.60 | 4.56 | 4.54 | 4.58 | 4.62 | – | – | – | – | inactive | – | – | CC(=O)Nc1ccc(NCC(=O)c2ccccc2)cc1
> 80 µM (inactive) | < 4.10 | 5.78 | 5.80 | – | 5.83 | 5.62 | 5.33 | 5.21 | 5.27 | 6.14 | 5.88 | 5.72 | – | – | – | – | – | 90.8 | – | CN(O)C(=S)c1ccccc1
> 80 µM (inactive) | < 4.10 | 5.18 | 5.21 | – | 5.17 | 5.14 | 5.17 | 5.22 | 5.17 | 5.34 | 5.28 | 5.22 | 5.24 | 5.24 | – | – | – | – | – | C=C1C(=O)c2sccc2C(c2ccc(OC)c(OC)c2)C1COC(C)=O (stereo unspecified)
– | 4.58 | – | 4.89 | 118 | 4.96 | 4.86 | 4.84 | 4.80 | 4.86 | 5.12 | 5.03 | 4.96 | – | – | – | – | inactive | – | 4.58 | S=C(NCCCN1CCOCC1)Nc1ccc(Cl)cc1
> 80 µM (inactive) | < 4.10 | 4.86 | 5.06 | – | 5.15 | 5.06 | 5.02 | 5.01 | 4.98 | 5.27 | 5.24 | 5.21 | 5.16 | 5.13 | – | – | – | – | – | Cc1cccc(C(=O)Nc2ccc(C(=O)/C=C/c3cccnc3)cc2)c1

Reference: PubChem BioAssay AID624129 (Sanford-Burnham Center for Chemical Genomics, 2012)
